Test results from US20210393678A1, “PERSONALIZED FOOD PRODUCTS FOR ENSURING ADEQUATE IRON INTAKE” (MY-OR D[…]., priority 2018, published 2021).

Columns and labels:
[1] = Noninvasive total blood hemoglobin in immoderate iron deficient subjects before and after 2 weeks of iron chelate; format: in vivo, human; settings: immoderate iron deficient subjects 2-7 years of age, baseline average 10.03 g/dL, 1 mL (15 mg) daily, Masimo rainbow SET SpHb
Method: To examine this, the inventors have recruited a population (2-7 years of age) of immoderate iron deficient subjects having an average hemoglobin level of 10.03 g/dL. Total blood hemoglobin levels were measured noninvasively at baseline (time 0) and following treatment (after 2 weeks) from the index finger of subjects using Masimo rainbow SET SpHb technology. Subjects were instructed to take 1 mL of iron bis-glycinate chelate (15 mg) daily.

[2] = clinical studies; cited from earlier work

SMILES | average total blood hemoglobin level following treatment ([1]; after two weeks) [g/dL] | increase of total blood hemoglobin level, on average ([1]; two weeks, index finger) [%] | hemoglobin and ferritin indices compared with ferrous sulfate or ferrous ascorbate [2]
NCC(=O)[O-].NCC(=O)[O-].[Fe+2] [iron bis-glycinate chelate] | 11.13 | 11 | 
NCC(=O)[O-].NCC(=O)[O-].[Fe+2] [Ferrochel, ferrous bis glycinate] |  |  | improved hemoglobin and ferritin indices at lower dosages than ferrous sulfate or ferrous ascorbate
